These are literature values, as cited in patent US11752142B2, “Oral pharmaceutical compositions of dabigatran etexilate” (Breckenridge Pharmaceutical, Inc., priority 2012, dated 2023).

Where a name gives a salt, the structure may show the parent alone. Read-outs that look alike come from different tables or passages of the source.

Test in data set [1]: not given
This is another data set of the same source.

Test in data set [2]: not given
This is another data set of the same source.

Take `CCCCCCOC(=O)NC(=N)c1ccc(NCc2nc3cc(C(=O)N(CCC(=O)OCC)c4ccccn4)ccc3n2C)cc1` [DEM, dabigatran etexilate mesylate]: the aqueous solubility result is, setting by setting: (acidic media) “rather high solubility”; (neutral and basic media) “very poor solubility”. Also, under “poor aqueous solubility but good membrane permeability”, the BCS class entry is recorded as “BCS Class II”. Further, in data set [1] (light irradiation), the “sensitivity to light irradiation” value is on record as “not sensitive to light irradiation”. Also, the stability entry in data set [1] (solid state) was “stable in the solid state”.
As for `CCCCCCOC(=O)NC(=N)c1ccc(NCc2nc3cc(C(=O)N(CCC(=O)OCC)c4ccccn4)ccc3n2C)cc1` [dabigatran etexilate, 3-[(2-{4-(hexyloxycarbonylamino-imino-methyl)-phenylamino]methyl}-1-methyl-1H-benzimidazol-5-carbonyl)-pyridin-2-yl-amino-propionic acid ethyl ester], in data set [2] (absorption of the active), the Tmax was 45 minutes-1 hour.
As for `[H]/N=C(/N)c1ccc(NCc2nc3cc(C(=O)N(CCC(=O)O)c4ccccn4)ccc3n2C)cc1` [dabigatran], the absolute bioavailability in data set [2] (dabigatran following oral administration of dabigatran etexilate) is recorded as 3-7%. In data set [2] (following oral administration of dabigatran etexilate), the elimination half life was 12 to 17 h.
